Columns and labels:
α-adrenergic = experiment: Radioligand binding (displacement of 3H-prazosin), rat cerebral cortex membranes
Method: (§1) The selectivity of 2-[N-3-fluoropropyl-N-2-(2 thienyl)ethylamine]-5-hydroxytetralin has been investigated using radioligand binding assays to determine the binding affinity at different receptor types, namely D1 and D2 dopamine and α-adrenergicreceptor sites.
(§2) Membranes derived from bovine striatum (for assaying dopamine receptors) and rat cerebral cortex (for assaying α-adrenergic receptors) were prepared as follows. The tissue was homogenized using a tissue disrupter and centrifuged. The pellet was washed by resuspension and centrifugation. The bovine striatal membranes were […] and thawed just prior to use. […]

D1 -dopamine = target: T1, D1 -dopamine (Bos taurus, UniProt Q95136); experiment: Radioligand binding (displacement of 3H-SCH23390), bovine striatal membranes; conditions: bovine striatum membranes
T1 construct: Membranes derived from bovine striatum (for assaying dopamine receptors); from tissue; host or cells: bovine striatum membranes
Method: as §1, §2

D2 -dopamine = target: T2, D2 -dopamine (Bos taurus, UniProt P20288); experiment: Radioligand binding (displacement of 3H-N-0437), bovine striatal membranes
T2 construct: Membranes derived from bovine striatum (for assaying dopamine receptors); from tissue; host or cells: bovine striatum membranes
Method: as §1
Membranes derived from bovine striatum (for assaying dopamine receptors) and rat cerebral cortex (for assaying α-adrenergic receptors) were prepared as follows. The tissue was homogenized using a tissue disrupter and centrifuged. The pellet was washed by resuspension and centrifugation. The bovine striatal membranes were […] and thawed just prior to use.
The radioligands ^3 H-prazosin, H^3 [((R)-(+)-8 chloro-2, 3, 4, 5-tetrahydro-3-methyl-5-phenyl-H-3-benzazepin-7-ol](^3 H-SCH23390), and H^3 [5-hydroxy-2-(N-n-propyl-N-2-[2-thienyl]ethylamino)tetralin] (^3 H-N-0437) were used to label α-adrenegic, D1 -dopamine and D2 -dopamine receptors, respectively. Increasing concentrations of 2-[N-3-fluoropropyl-N-2-(2-thienyl)ethylamine]-5-hydroxy-tetralin were used to displace the binding of these radioligands from their respective receptors. Competition binding curves were hand drawn to fit the data, and IC50 values were determined graphically. The IC50 value indicates the concentration of test drug required to displace from attachment at the receptor site of interst 50 percent of the ligands of known affinity already in attachment there.

T2 sequence (P20288 whole entry): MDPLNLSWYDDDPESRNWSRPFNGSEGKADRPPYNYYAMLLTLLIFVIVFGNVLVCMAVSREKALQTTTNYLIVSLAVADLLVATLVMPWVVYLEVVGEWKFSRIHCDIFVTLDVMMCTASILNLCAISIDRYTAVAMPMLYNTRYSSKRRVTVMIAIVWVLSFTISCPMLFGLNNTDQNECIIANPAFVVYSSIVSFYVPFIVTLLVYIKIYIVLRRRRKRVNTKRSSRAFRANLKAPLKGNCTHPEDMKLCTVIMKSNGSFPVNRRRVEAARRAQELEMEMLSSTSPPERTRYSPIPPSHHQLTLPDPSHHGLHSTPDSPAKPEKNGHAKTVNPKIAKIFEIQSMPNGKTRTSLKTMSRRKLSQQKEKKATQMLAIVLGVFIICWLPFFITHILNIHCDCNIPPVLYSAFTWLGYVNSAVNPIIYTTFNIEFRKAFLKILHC
T1 sequence (Q95136 whole entry): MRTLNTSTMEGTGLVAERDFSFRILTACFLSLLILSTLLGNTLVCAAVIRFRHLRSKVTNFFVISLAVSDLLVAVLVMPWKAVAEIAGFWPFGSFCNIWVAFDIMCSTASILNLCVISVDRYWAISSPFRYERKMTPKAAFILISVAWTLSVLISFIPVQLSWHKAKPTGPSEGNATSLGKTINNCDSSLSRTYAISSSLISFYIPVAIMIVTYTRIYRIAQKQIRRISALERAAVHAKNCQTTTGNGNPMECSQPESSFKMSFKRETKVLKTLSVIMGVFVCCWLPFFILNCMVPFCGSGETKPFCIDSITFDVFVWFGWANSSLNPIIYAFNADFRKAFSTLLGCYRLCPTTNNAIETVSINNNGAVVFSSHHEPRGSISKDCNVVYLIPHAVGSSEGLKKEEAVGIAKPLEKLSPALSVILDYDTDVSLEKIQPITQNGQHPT

- IC50 (α-adrenergic): 5.7 µM
- IC50 (D1 -dopamine): > 10 µM
- affinity for dopamine D2 receptor sites (in words) (D2 -dopamine): unexpectedly high affinity
- IC50 (D2 -dopamine; D2 -dopamine, 3H-N-0437, bovine striatum membranes): 0.00103 ± 0.00049 µM
- times more potent in binding to D2 -dopamine receptors than to α-adrenergic receptors (D2 -dopamine; D2 versus α-adrenergic): more than 5000 times
- selectivity for D2 -dopamine receptors (in words) (D2 -dopamine; versus D1 and α-adrenergic): selective for D2 -dopamine receptors
Compound: Oc1cccc2c1CCC(N(CCCF)CCc1cccs1)C2 (stereo not drawn) [2-[N-3-Fluoropropyl-N-2-(2-thienyl)ethylamino]-5-hydroxytetralin]
